Assays:
[1] = system: castrated male Wistar rats; assay: Growth of prostate, seminal vesicle and glandulae preputiales in castrated Wistar rats (wet weight); type: in vivo, rat; conditions: daily for 14 days, sacrificed 24 hours after last administration, yeast 3 ml daily intragastric, testosterone propionate 25 mg/kg daily i.m.
Description: (§1) The activated yeast compositions used in the following examples were prepared as described above, using Saccharomyces cerevisiae Hansen AS2.504, cultured in the presence of an alternating electric field having the electric field frequency and field strength exemplified in the parentheses following the recommended ranges listed in Section IV, supra. Control (i.e., untreated) yeast compositions were those prepared in the same manner as described in Section VI, supra, except that the yeast cells were cultured in the absence of EMFs. Unless otherwise indicated, the yeast compositions and the corresponding controls were administered to the animals by intragastric feeding.
To test the ability of the EMF-treated AS2.504 cells to regulate male hormone, twenty-four healthy male Wistar rats (about 50 g body weight, 20 days old) were selected. Under ether anesthesia, both testes of each rat were removed under sterile conditions. The castrated rats were then randomly divided into four equal groups. The activated yeast composition was administered to Group A rats at a dose of 3 ml daily continuously for 14 consecutive days. […]
Each rat was sacrificed 24 hours after the last administration of the composition of interest. […] The wet weight of the prostate and seminal vesicle was recorded (Table 2). […] The wet weight of the removed glandulae preputiales was also recorded (Table 2).

[2] = system: castrated male NIH-grade mice; assay: Growth of seminal vesicle and glandulae preputiales in castrated mice (weight); type: in vivo, mouse; conditions: 7 days, yeast 1.5 ml/dose twice daily intragastric, testosterone propionate 20 mg/kg i.m. every other day
Description: as §1
Forty male NIH-grade castrated mice (about 25-30 g each) were randomly divided into four equal groups. Three days after castration, the activated yeast composition was administered to each of the Group A mice twice daily at 1.5 ml/dose for seven consecutive days. The control yeast composition was administered to each of the Group B mice at the same daily dosage for seven consecutive days. Testosterone propionate was injected intramuscularly to each of the Group C mice in the buttocks at 20 mg/kg every other day, i.e., on days 1, 3, 5, and 7, for a total of 7 days. Saline was orally administered to each of the Group D […] twice daily at 1.5 ml/dose for seven consecutive days. […]

SMILES: CCC(=O)O[C@H]1CC[C@H]2[C@@H]3CCC4=CC(=O)CC[C@]4(C)[C@H]3CC[C@]12C [testosterone propionate, Testosterone propionate]
- Glandulae Preputiales (wet weight) [1]: 98.6 ± 15.8
- Prostate and Seminal Vesicle (wet weight) [1]: 91.5 ± 12.8
- Glandulae Preputiales (mg/100 g body weight) [2]: 323.7 ± 50.6 mg/100 g body weight
- Seminal Vesicle (mg/100 g body weight) [2]: 268.2 ± 56.2 mg/100 g body weight

Reference: US6709849B2, “Dietary supplements for regulating male hormone” (priority 2002, dated 2004)
